In patent US12065435B2, “Compounds for the treatment of glycogen storage disorders” (HADASIT MEDICAL RESEARCH SERVICES AND DEVELOPMENT LTD., priority 2017, dated 2024):

Columns and labels:
[1] = tested on: polyglucosan body (PB) in APBD patient-derived fibroblasts; test: High content (image-based) PAS screening assay for polyglucosan bodies; type: cell-based, human; conditions: 0, 1, 5, 10 and 50 μM
Experimental: All the steps of the assay were performed automatically using a Freedom Evo 150 liquid handling robot (Tecan). APBD patient-derived fibroblasts were seeded at a density of 800 cells/well in DMEM (Gibco) supplemented with 1 mM sodium pyruvate (Gibco), 1% antibiotics (Biological Industries, Israel) and 5% fetal bovine serum (Hyclone) into 384 well microclear plates (Greiner). The plates were transferred by the robotic arm (RoMa) into an automated incubator (Liconic), integrated with the robotic system, where they were incubated at 37° C. with 5% CO2. Following 24 h incubation, the medium was replaced by the robot using medium supplemented with 10 μM of each screened compound (0.1% DMSO final concentration, all prepared by the robot). The screened compounds were part of the Diverset CL collection purchased from ChemBridge (10,084 out of 50,000 molecules).
Next, these cells were cultured for another 24 h in the automated incubator, and, using the robot, washed them with PBS (Biological Industries, Israel), the cells were fixed with 4% paraformaldehyde (PFA), washed again with PBS, neutralized the previously added PFA by ammonium chloride (Sigma Aldrich), washed with PBS, permeabilized with 0.1% Triton X-100 (Sigma Aldrich), and washed again with PBS.
Following this, a robot was used to treat the fixed cells with 0.5 g/dl diastase (or amylase, Sigma Aldrich) for 5 minutes at 37° C. in the automated incubator, wash with PBS, stained with PAS (Merck), Hoechst 33342 (Sigma Aldrich) and Cell Mask Deep Red (Molecular Probes) and wash with PBS. Images of stained cells were then acquired by the IN Cell Analyzer 2000 (GE Healthcare) and analyzed using the IN Cell Investigator (GE Healthcare) applying an algorithm that quantified the PAS signal within each Cell Mask stained cell.
Images were segmented based on the Cell Mask signal which was linked with the segmentation of the nuclei, employing an empirically established sensitivity and kernel size for allowing the best segmentation. Once these nucleus-cytoplasm complex objects were selected, the software calculated the number of these objects (cell number) as well as the intensity of the PAS signal within each of them. All the assay parameters (including the acquisition exposure times, objective, and the analysis parameters) were kept constant throughout the whole screening campaign for allowing comparison of signals obtained from different batches of assay within the campaign.
The assay was performed as mentioned above, but with compound concentrations of 1, 5, 10, and 50 μM, instead of a constant concentration of 10 μM.
The discarded data was presumably associated with cells affected by toxic compounds. In the remaining data, the measured population mean PB intensity was normalized. Based on a series of images used for training, compounds were considered as positive only where following treatment the normalized PB mean intensity was at least under −1.2 z-score of the scale. Following this approach, 85 potential hits out of the 10,084 screened compounds were selected (0.84%).

[2] = biological target: T1, recombinant human GS1 (Homo sapiens, UniProt P13807); test: In vitro GS activity assay; type: biochemical; conditions: 50 μM; unpaired t-tests, p<0.05
T1 sequence (P13807 1-737): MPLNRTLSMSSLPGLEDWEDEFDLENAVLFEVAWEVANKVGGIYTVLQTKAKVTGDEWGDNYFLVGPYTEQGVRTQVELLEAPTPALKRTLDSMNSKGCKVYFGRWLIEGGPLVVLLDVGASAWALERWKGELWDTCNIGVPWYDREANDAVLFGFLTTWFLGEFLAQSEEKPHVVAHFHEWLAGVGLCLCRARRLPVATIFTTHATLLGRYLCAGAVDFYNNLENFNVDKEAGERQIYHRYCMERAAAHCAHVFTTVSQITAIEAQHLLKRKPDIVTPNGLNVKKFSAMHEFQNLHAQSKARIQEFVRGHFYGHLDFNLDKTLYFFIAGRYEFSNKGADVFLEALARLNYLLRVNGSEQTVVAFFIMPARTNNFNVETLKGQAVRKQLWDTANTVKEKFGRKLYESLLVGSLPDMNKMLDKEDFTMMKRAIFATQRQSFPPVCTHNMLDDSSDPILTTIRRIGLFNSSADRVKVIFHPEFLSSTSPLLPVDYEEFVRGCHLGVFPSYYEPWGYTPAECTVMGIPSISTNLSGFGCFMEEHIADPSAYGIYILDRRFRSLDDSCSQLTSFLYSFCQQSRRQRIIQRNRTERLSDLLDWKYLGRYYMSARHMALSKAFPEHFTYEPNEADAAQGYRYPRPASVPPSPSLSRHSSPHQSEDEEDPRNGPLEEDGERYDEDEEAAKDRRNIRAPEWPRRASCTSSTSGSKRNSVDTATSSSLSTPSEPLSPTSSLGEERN
Experimental: The reaction was carried out in 96-well plates containing 50 μl of reaction volume (50 mM Tris, pH8, 20 mM EDTA, 25 mM KF, 2 mg/ml glycogen, 10 mM Glucose-6-Phosphate, 1.65 mM UDP[14C]glucose and 100 mM UDP-glucose). To test the inhibitory effect of the hits, each one was included in the reaction at a final concentration of 50 μM. The reaction was initiated with the addition of 20 nM recombinant human GS1, followed by incubation at 37° C. for 30 min. The reaction was then stopped with the addition of 100 μl cold 100% ethanol, and the total suspension was transferred into a 96-well filter plate. Vacuum was applied to remove the ethanol. Five washing steps with 150 μl of cold 66% ethanol then fully removed any non-incorporated UDP[14C]glucose, while the labelled glycogen stayed on the well filters. The plate was dried at 37° C. incubator for 30 min. 50 μl of scintillation fluid was added to each well and the plate was read for 14C signal on Microplate scintillation and luminescence counter Top Count (Perkin Elmer).

effect on GS activity (direction of change) [2] | SMILES | dose response of diastase resistant cell associated mean PAS intensity normalized by z-score [1]
 | O=C(CN1CCOC1=O)N1CC[C@@H](c2ccc3ccccc3c2)[C@H](O)C1 (relative stereo) [UDP #5, 3-{2-[(3S*,4S*)-3-hydroxy-4-(2-naphthyl)piperidin-1-yl]-2-oxoethyl}-1,3-oxazolidin-2-one] | concentration dependent
 | Cn1nc(-c2cccs2)cc1C(=O)N1[C@@H]2CC[C@H]1CNC(=O)C2 (relative stereo) [UDP #9, (1S*,6R*)-9-{[1-methyl-3-(2-thienyl)-1H-pyrazol-5-yl]carbonyl}-3,9-diazabicyclo[4.2.1]nonan-4-one] | lowered mean normalized PAS intensity in a non-dose responding manner
 | CCO[C@H]1COC[C@@H]1NC(=O)Cc1c(C)nc(N)nc1C (relative stereo) [UDP #13, 2-(2-amino-4,6-dimethylpyrimidin-5-yl)-N-[(3S*,4R*)-4-ethoxytetrahydrofuran-3-yl]acetamide] | concentration dependent
 | Oc1ccc(-c2cc(NCc3cccnc3)nc3[nH]ccc23)c(F)c1 [UDP #1, 3-fluoro-4-{6-[(pyridin-3-ylmethyl)amino]-1H-pyrrolo[2,3-b]pyridin-4-yl}phenol] | lowered mean normalized PAS intensity in a non-dose responding manner
 | COc1cc(F)c(CN2CCN(c3cncc(C(N)=O)n3)CC2)c(F)c1 [UDP #2, 6-[4-(2,6-difluoro-4-methoxybenzyl)piperazin-1-yl]pyrazine-2-carboxamide] | concentration dependent
 | CC(C)CCN1CCNC(=O)C1CC(=O)N1CCc2[nH]nc(C3CC3)c2C1 (centres unmarked) [UDP #3, 3-[2-(3-cyclopropyl-1,4,6,7-tetrahydro-5H-pyrazolo[4,3-c]pyridin-5-yl)-2-oxoethyl]-4-(3-methylbutyl)-2-piperazinone] | lowered mean normalized PAS intensity in a non-dose responding manner
increasing | CC(C)n1ccnc1CN1CCC(c2[nH]ncc2-c2cccc(F)c2)CC1 [UDP #6, 4-[4-(3-fluorophenyl)-1H-pyrazol-5-yl]-1-[(1-isopropyl-1H-imidazol-2-yl)methyl]piperidine] | concentration dependent
increasing | Cc1nc(C(C)C)cc(N2CCN(Cc3ncccc3C)CC2)n1 [UDP #7, 4-isopropyl-2-methyl-6-{4-[(3-methylpyridin-2-yl)methyl]piperazin-1-yl}pyrimidine] | lowered mean normalized PAS intensity in a non-dose responding manner
increasing | CC1CCC(=O)N1c1ccc(-n2cnnc2)cc1 (centres unmarked) [UDP #8, 5-methyl-1-[4-(4H-1,2,4-triazol-4-yl)phenyl]pyrrolidin-2-one] | concentration dependent
 | CCc1ccc(CN(C)C(=O)c2ccc3c(c2)no[n+]3[O-])nc1 [UDP #11, N-[(5-ethylpyridin-2-yl)methyl]-N-methyl-2,1,3-benzoxadiazole-5-carboxamide 1-oxide] | concentration dependent
increasing | O=C(c1ccoc1)N1CCOc2c(O)cc(-c3cccc(Cl)c3)cc2C1 [UDP #12, 7-(3-chlorophenyl)-4-(3-furoyl)-2,3,4,5-tetrahydro-1,4-benzoxazepin-9-ol] | concentration dependent
 | CC(C)(C)c1ccc(O)c(-n2cnnc2)c1 [UDP #14, 4-tert-butyl-2-(4H-1,2,4-triazol-4-yl)phenol] | concentration dependent
 | C1CCc2c(n[nH]c2CCNC2CCC3(CCNCC3)CC2)C1 [UDP #15] | concentration dependent
 | COc1ccc(-c2ncc(C)c(N)n2)c(C)c1 [UDP #16, 2-(4-methoxy-2-methylphenyl)-5-methylpyrimidin-4-amine] | lowered mean normalized PAS intensity in a non-dose responding manner
 | Cc1c(NC(=O)c2ccco2)cccc1C(=O)N1CCC2(CCCNC2)C1 (centres unmarked) [UDP #17, N-[3-(2,7-diazaspiro[4.5]dec-2-ylcarbonyl)-2-methylphenyl]-2-furamide] | concentration dependent
increasing | Cc1ccc(NC(=O)CCn2cnc(-c3ccccc3)c2C2CCOC2)c(C)c1 (centres unmarked) [UDP #18, N-(2,4-dimethylphenyl)-3-[4-phenyl-5-(tetrahydrofuran-3-yl)-1H-imidazol-1-yl]propanamide] | lowered mean normalized PAS intensity in a non-dose responding manner

SMILES | effect on GS activity (direction of change) [2] | dose response of diastase resistant cell associated mean PAS intensity normalized by z-score [1]
Cc1ccc2c(c1)c(CNC(=O)c1ccccc1C1CCNC1)nn2C (centres unmarked) [UDP #10, N-[(1,5-dimethyl-1H-indazol-3-yl)methyl]-2-(3-pyrrolidinyl)benzamide] | except for compound #10, have significantly changed GS activity | lowered mean normalized PAS intensity in a non-dose responding manner
